Measured values reported in patent US20050143362A1 (priority 2003, published 2005).

What was measured:
[1] = tested on: hypogonadism in the adult male; test: Illustrative examples: danazol capsules given to hypogonadal adult men; assay type: in vivo; details: after one month
Text: A person reports a lethargic and depressed mood. Blood tests show a hypogonadism in which total testosterone is borderline normal range but SHBG levels are higher than normal. Free testosterone levels are abnormally low and the patient is diagnosed as hypogonadal.
A person reports a general physical weakening and decreased libido. Blood tests show a high total testosterone level but SHBG levels are also in the very high range. Free testosterone levels are abnormally low and the patient is diagnosed as hypogonadal.

[2] = molecular target: T1, sex hormone binding globulin (SHBG) (Homo sapiens, UniProt P04278); details: Pugeat et al. 1981; cited from earlier work
T1 sequence (P04278 30-402): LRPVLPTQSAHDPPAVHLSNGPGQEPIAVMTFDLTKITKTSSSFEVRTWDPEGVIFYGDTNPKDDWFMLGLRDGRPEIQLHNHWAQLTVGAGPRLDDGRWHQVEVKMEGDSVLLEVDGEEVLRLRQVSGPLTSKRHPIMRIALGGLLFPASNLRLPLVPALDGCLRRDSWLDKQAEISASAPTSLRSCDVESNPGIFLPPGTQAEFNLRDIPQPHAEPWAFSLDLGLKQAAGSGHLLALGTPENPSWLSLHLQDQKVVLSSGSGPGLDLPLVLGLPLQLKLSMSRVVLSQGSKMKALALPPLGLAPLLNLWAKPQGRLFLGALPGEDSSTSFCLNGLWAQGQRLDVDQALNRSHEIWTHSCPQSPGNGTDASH

progesterone receptors = molecular target: T2, progesterone receptors (Homo sapiens, UniProt P06401); details: Zurlo et al. 1990; cited from earlier work
T2 sequence (P06401 1-933): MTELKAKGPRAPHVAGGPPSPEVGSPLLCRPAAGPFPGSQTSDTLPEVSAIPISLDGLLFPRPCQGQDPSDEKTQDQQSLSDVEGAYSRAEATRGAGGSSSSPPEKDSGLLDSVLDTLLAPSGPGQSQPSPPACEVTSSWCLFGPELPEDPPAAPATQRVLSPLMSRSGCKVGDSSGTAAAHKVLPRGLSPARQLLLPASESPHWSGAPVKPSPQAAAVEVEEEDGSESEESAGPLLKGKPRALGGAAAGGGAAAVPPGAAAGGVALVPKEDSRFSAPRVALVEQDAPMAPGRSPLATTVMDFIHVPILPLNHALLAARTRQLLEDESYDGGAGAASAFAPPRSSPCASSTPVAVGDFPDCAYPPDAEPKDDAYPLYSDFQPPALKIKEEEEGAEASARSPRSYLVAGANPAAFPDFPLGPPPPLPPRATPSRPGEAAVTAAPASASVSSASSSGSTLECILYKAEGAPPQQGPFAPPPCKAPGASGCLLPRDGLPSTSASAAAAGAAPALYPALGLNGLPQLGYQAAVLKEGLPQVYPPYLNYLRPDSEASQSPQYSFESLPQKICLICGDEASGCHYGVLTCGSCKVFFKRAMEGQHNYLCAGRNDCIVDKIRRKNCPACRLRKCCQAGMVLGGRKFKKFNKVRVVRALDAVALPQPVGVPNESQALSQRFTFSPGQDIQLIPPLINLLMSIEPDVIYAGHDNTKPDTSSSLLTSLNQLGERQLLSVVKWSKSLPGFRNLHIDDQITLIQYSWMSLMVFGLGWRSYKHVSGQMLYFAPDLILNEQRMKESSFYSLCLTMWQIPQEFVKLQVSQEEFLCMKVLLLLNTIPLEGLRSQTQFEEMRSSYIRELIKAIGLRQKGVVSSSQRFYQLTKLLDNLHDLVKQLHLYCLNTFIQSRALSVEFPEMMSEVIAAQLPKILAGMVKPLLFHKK

serum gonadotropins = details: Gelfand et al. 1976; cited from earlier work
[3] = cited from earlier work
[4] = Example 1: person, one 25 milligram capsule three times daily
[5] = Example 2: person, one 25 milligram capsule twice a day

For `C#C[C@]1(O)CC[C@H]2[C@@H]3CCC4=Cc5oncc5C[C@]4(C)[C@H]3CC[C@@]21C` [danazol, 17α-pregn-4-en-20-yno[2,3-d]isoxazol-17-ol], which “SHBG level (blood test)” value [1, 4] is on record?
The value was “remained stable”.

What about the “free testosterone (blood test)” value [1, 4] of the same molecule?
The value was “increased”.

What about the “total testosterone level (blood test)” value [1, 4] of the same molecule?
Its value is “remained stable”.

What about the “vigor and mood reported by patient” value [1, 4] of the same molecule?
The value was “greater vigor and an improved mood”.

What about the “SHBG level (blood test)” value [1, 5] of the same molecule?
Its value is “lower levels”.

What about the “free testosterone (blood test)” value [1, 5] of the same molecule?
Its value is “new higher level”.

What about the “libido reported by patient” value [1, 5] of the same molecule?
Its value is “increased libido”.

And the “displacement of testosterone from SHBG” value [2]?
Its value is “competitive displacer of testosterone”.

What about the “binding to progesterone receptors” value (progesterone receptors) of the same molecule?
The value was “competitive binding”.

What about the serum gonadotropins (serum gonadotropins) of the same molecule?
Its serum gonadotropins is “dose-dependent reduction”.

And the androgenic potential ([3]; Gelfand et al. 1976)?
The androgenic potential was “markedly attenuated”.

What about the “myogenic (anabolic) activity” value ([3]; Gelfand et al. 1976) of the same molecule?
Its value is “mildly myogenic”.

What about the androgen-like activity ([3]; Potts et al. 1980) of the same molecule?
The androgen-like activity was “weak”.

What about the anabolic response ([3]; whole males, low dosages, Dmowski et al. 1971) of the same molecule?
The anabolic response was “increased and stable, long term anabolic response”.
